The target in the assay is FABP4 (Homo sapiens, UniProt P15090). In words: TdF (Temperature Dependence Fluorescence) assay, thermal shift, FABP4. Format: binding. The essentials:
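Binding measured as ΔTm versus protein alone; binding constants derived by nonlinear fitting with ΔHL set to −7 kcal/mol and ΔCpL to zero.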

Each structure is given as a SMILES string. A value given as a limit tells only on which side of the number the result lay.

Sequence of FABP4 (P15090 whole entry, species assumed): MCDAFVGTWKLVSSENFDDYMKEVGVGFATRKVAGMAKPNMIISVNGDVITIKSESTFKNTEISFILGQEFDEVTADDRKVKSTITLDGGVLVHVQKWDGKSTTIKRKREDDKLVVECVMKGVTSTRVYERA

In general, Kd refers to the free concentration of one partner at which half of the binding sites on the other are occupied at equilibrium, for simple one-to-one binding. `O=c1cc(COc2cccnc2)[nH]c2nc(-c3ccccc3)nn12` [1-19]: the Kd was above 500 nM.
Turning to `O=C(O)c1c(Cl)cccc1OCc1cc(=O)n2nc(-c3ccccc3)nc2[nH]1` [47-1, 2-chloro-6-((7-oxo-2-phenyl-4,7-dihydro-[1,2,4]triazolo[1,5-a]pyrimidin-5-yl)methoxy)benzoic acid], the “FABP4 TdF Kd” value is given as “B (0.5 ≦ B < 0.001 μM)”.
Still for that read-out and setting: the entry for `O=c1cc(COC2CCc3ccccc32)[nH]c2nc(-c3ccccc3)nn12` (stereo not drawn) [1-9] is “B (0.5 ≦ B < 0.001 μM)”.
On to `CCc1ccc(NCc2cc(=O)n3nc(CC)nc3[nH]2)cc1` [5-8], for which the Kd is above 500 nM.
Turning to `O=c1cc(COc2cccc3cnccc23)[nH]c2nc(-c3ccccc3)nn12` [1-75], the Kd was above 500 nM.
In the case of `O=C(O)C1(OCc2cc(=O)n3nc(-c4ccccc4)nc3[nH]2)CCCCC1` [48-2, 1-((7-oxo-2-phenyl-4,7-dihydro-[1,2,4]triazolo[1,5-a]pyrimidin-5-yl)methoxy)cyclohexanecarboxylic acid], the equilibrium dissociation constant (Kd) was above 500 nM.
The same measure, in the same setting: the figure for `O=C(NCC1(c2ccc(Cl)cc2)CCC1)c1c(Cl)cccc1OCc1cc(=O)n2nc(-c3ccccc3)nc2[nH]1` [47-24, 2-chloro-N-((1-(4-chlorophenyl)cyclobutyl)methyl)-6-((7-oxo-2-phenyl-4,7-dihydro-[1,2,4]triazolo[1,5-a]pyrimidin-5-yl)methoxy)benzamide] is at most 1 nM.
On the same count and under the same terms, the figure for `CCc1ccc(OCc2cc(=O)n3nc(CC)nc3[nH]2)cc1` [8-4] is above 500 nM.
For the compound `Cn1nccc1NC(=O)c1ccccc1OCc1cc(=O)n2nc(-c3ccccc3)nc2[nH]1` [47-54], the “FABP4 TdF Kd” value was “B (0.5 ≦ B < 0.001 μM)”.
On to `O=C(NCC1(CO)CCOCC1)C1(OCc2cc(=O)n3nc(-c4ccccc4)nc3[nH]2)CCCCC1` [48-62], for which the “FABP4 TdF Kd” value was “B (0.5 ≦ B < 0.001 μM)”.
In the case of `COC[C@@H]1CCCN1C(=O)c1c(Cl)cccc1OCc1cc(=O)n2nc(-c3ccccc3)nc2[nH]1` [47-9, (S)-5-((3-chloro-2-(2-(methoxymethyl)pyrrolidine-1-carbonyl)phenoxy)methyl)-2-phenyl-[1,2,4]triazolo[1,5-a]pyrimidin-7(4H)-one], the “FABP4 TdF Kd” value was “B (0.5 ≦ B < 0.001 μM)”.
For `CC(C)(C)c1cc(NC(=O)c2c(Cl)cccc2OCc2cc(=O)n3nc(-c4ccccc4)nc3[nH]2)n(-c2ccc(Cl)cc2)n1` [47-27, N-(3-tert-butyl-1-(4-chlorophenyl)-1H-pyrazol-5-yl)-2-chloro-6-((7-oxo-2-phenyl-4,7-dihydro-[1,2,4]triazolo[1,5-a]pyrimidin-5-yl)methoxy)benzamide], the dissociation constant (Kd) is at most 1 nM.
`CCc1ccc(NCc2cc(=O)n3nc(-c4ccccc4)cc3[nH]2)cc1` [10-1]: the Kd is above 500 nM.
Still for that read-out and setting: the figure for `CC1(C)CCCC(C)(C)C1OCc1cc(=O)n2nc(-c3ccccc3)nc2[nH]1` [1-102] is above 500 nM.
Turning to `O=c1cc(COc2cccc3ncccc23)[nH]c2nc(-c3ccccc3)nn12` [1-80], the “FABP4 TdF Kd” value is listed as “B (0.5 ≦ B < 0.001 μM)”.
Take `O=c1cc(COc2ccc(I)cc2)[nH]c2nc(-c3ccccc3)nn12` [1-30]: the dissociation constant Kd is above 500 nM.
With `Cn1ccc(NCc2cc(=O)n3nc(-c4ccccc4)nc3[nH]2)n1` [1-90], the dissociation constant Kd is above 500 nM.
For the compound `Cc1c(F)cccc1OCc1cc(=O)n2nc(-c3ccccc3)nc2[nH]1` [1-39], the “FABP4 TdF Kd” value is on record as “B (0.5 ≦ B < 0.001 μM)”.
Turning to `O=C(NC1CCCCC1)c1ccccc1OCc1cc(=O)n2nc(-c3ccccc3)nc2[nH]1` [47-63], the “FABP4 TdF Kd” value was “B (0.5 ≦ B < 0.001 μM)”.
On the same count and under the same terms, the entry for `N#Cc1cccc(OCc2cc(=O)n3nc(-c4ccccc4)nc3[nH]2)c1Cl` [45-2] is “B (0.5 ≦ B < 0.001 μM)”; for `CC(NC(=O)c1c(Cl)cccc1OCc1cc(=O)n2nc(-c3ccccc3)nc2[nH]1)C1CCC1` (stereo not drawn) [47-36] it is “B (0.5 ≦ B < 0.001 μM)”.
Turning to `O=c1cc(COc2ccccc2)[nH]c2nc(-c3ccccc3)nn12` [1-46], the equilibrium dissociation constant (Kd) was above 500 nM.
As to `O=C(NC1(c2ccccc2)CC1)C1(OCc2cc(=O)n3nc(-c4ccccc4)nc3[nH]2)CCCCC1` [48-51], the “FABP4 TdF Kd” value is given as “B (0.5 ≦ B < 0.001 μM)”.
As to `CC(C)(C)OC(=O)N1CCC(OCc2cc(=O)n3nc(-c4ccccc4)nc3[nH]2)(C(=O)NCC2CCC2)CC1` [48-22], the Kd was above 500 nM.
As to `O=C(NC1(CO)CC1)C1(OCc2cc(=O)n3nc(-c4ccccc4)nc3[nH]2)CCCCC1` [48-36], the “FABP4 TdF Kd” value is recorded as “B (0.5 ≦ B < 0.001 μM)”.
For `O=c1cc(CN2CCc3ccccc32)[nH]c2nc(-c3ccccc3)nn12` [1-43], the dissociation constant (Kd) was above 500 nM.
Consider `Cc1cnc2cccc(NCc3cc(=O)n4nc(-c5ccccc5)nc4[nH]3)n12` [1-104], for which the Kd is above 500 nM.
Same read-out and setting: the same measure for `COc1ccccc1C1(CNC(=O)C2(OCc3cc(=O)n4nc(-c5ccccc5)nc4[nH]3)CCCCC2)CC1` [48-12, N-((1-(2-methoxyphenyl)cyclopropyl)methyl)-1-((7-oxo-2-phenyl-4,7-dihydro-[1,2,4]triazolo[1,5-a]pyrimidin-5-yl)methoxy)cyclohexanecarboxamide]: at most 1 nM.
Turning to `Cc1ccccc1C(C)Cc1cc(=O)n2nc(-c3ccccc3)nc2[nH]1` (stereo not drawn) [35-5], the “FABP4 TdF Kd” value is reported as “B (0.5 ≦ B < 0.001 μM)”.
Turning to `Cc1cc(N)n(C(=O)c2c(Cl)cccc2OCc2cc(=O)n3nc(-c4ccccc4)nc3[nH]2)n1` [47-51], the equilibrium dissociation constant (Kd) is at most 1 nM.
For the compound `O=C(NCC1(CO)CC1)C1(OCc2cc(=O)n3nc(-c4ccccc4)nc3[nH]2)CCCCC1` [48-54], the “FABP4 TdF Kd” value is on record as “B (0.5 ≦ B < 0.001 μM)”.
Consider `Cc1ccc(OCc2cc(=O)n3nc(C(F)(F)F)nc3[nH]2)cc1C` [5-4], for which the Kd was above 500 nM.
As for `O=C(NCCC1CC1)c1ccccc1OCc1[nH]c2nc(-c3ccccc3)nn2c(=O)c1Cl` [24-14], the “FABP4 TdF Kd” value is “B (0.5 ≦ B < 0.001 μM)”.
For `O=C(NC1(c2cccc(Cl)c2)CC1)C1(OCc2cc(=O)n3nc(-c4ccccc4)nc3[nH]2)CCCCC1` [48-9, N-(1-(3-chlorophenyl)cyclopropyl)-1-((7-oxo-2-phenyl-4,7-dihydro-[1,2,4]triazolo[1,5-a]pyrimidin-5-yl)methoxy)cyclohexanecarboxamide], the Kd is at most 1 nM.
Take `COc1cccc(C2(CNC(=O)C3(OCc4cc(=O)n5nc(-c6ccccc6)nc5[nH]4)CCCCC3)CC2)c1` [48-70]: the “FABP4 TdF Kd” value is listed as “B (0.5 ≦ B < 0.001 μM)”.
As for `Cn1ccc(NC(=O)c2c(Cl)cccc2OCc2cc(=O)n3nc(-c4ccccc4)nc3[nH]2)n1` [47-40], the “FABP4 TdF Kd” value is reported as “B (0.5 ≦ B < 0.001 μM)”.
As for `O=C(O)c1c(Cl)cccc1OCc1cc(=O)n2nc(C(F)(F)F)nc2[nH]1` [53-3], the Kd is above 500 nM.
Still for that read-out and setting: the same measure for `CCc1ccc(NCc2cc(=O)n3nc(C(F)(F)F)nc3[nH]2)cc1` [5-2]: above 500 nM.
As to `CC(C)(CNC(=O)c1c(Cl)cccc1OCc1cc(=O)n2nc(-c3ccccc3)nc2[nH]1)N1CCOCC1` [47-22, 2-chloro-N-(2-methyl-2-morpholinopropyl)-6-((7-oxo-2-phenyl-4,7-dihydro-[1,2,4]triazolo[1,5-a]pyrimidin-5-yl)methoxy)benzamide], the “FABP4 TdF Kd” value is listed as “B (0.5 ≦ B < 0.001 μM)”.
As to `O=C(N1C[C@@H]2C[C@@H]2[C@H]1CO)C1(OCc2cc(=O)n3nc(-c4ccccc4)nc3[nH]2)CCCCC1` [48-7, 5-((1-((1S,2S,5R)-2-(hydroxymethyl)-3-azabicyclo[3.1.0]hexane-3-carbonyl)cyclohexyloxy)methyl)-2-phenyl-[1,2,4]triazolo[1,5-a]pyrimidin-7(4H)-one], the “FABP4 TdF Kd” value was “B (0.5 ≦ B < 0.001 μM)”.
For the compound `O=c1cc(COC2CCSCC2)[nH]c2nc(-c3ccccc3)nn12` [1-79], the Kd is above 500 nM.
Same read-out and setting: the figure for `Cc1c(Cl)cccc1OCc1cc(=O)n2nc(-c3ccccc3F)nc2[nH]1` [25-8] is above 500 nM; for `Cc1c(Cl)cccc1N(C)C(=O)c1cc(=O)n2nc(-c3ccccc3)nc2[nH]1` [11-4] it is above 500 nM.
Turning to `COc1cccc(C2(NC(=O)C3(OCc4cc(=O)n5nc(-c6ccccc6)nc5[nH]4)CCCCC3)CC2)c1` [48-71], the “FABP4 TdF Kd” value is given as “B (0.5 ≦ B < 0.001 μM)”.
Regarding `Nc1c(Cl)cccc1OCc1cc(=O)n2nc(-c3ccccc3)nc2[nH]1` [1-136], the “FABP4 TdF Kd” value was “B (0.5 ≦ B < 0.001 μM)”.
Regarding `N#Cc1cc(F)cc(OCc2cc(=O)n3nc(-c4ccccc4)nc3[nH]2)c1` [1-23], the Kd is above 500 nM.
Same read-out and setting: the same measure for `O=c1cc(COc2ccc(C(F)(F)F)cc2)[nH]c2nc(-c3ccccc3)nn12` [1-7]: above 500 nM.
For the compound `Cc1c(Cl)cccc1OCc1[nH]c2nc(-c3ccccc3)nn2c(=O)c1F` [36-1], the “FABP4 TdF Kd” value is “B (0.5 ≦ B < 0.001 μM)”.
In the case of `CCc1ccc(OCc2cc(=O)n3nc(C4CC4)nc3[nH]2)cc1` [8-12], the Kd is above 500 nM.
On to `O=C(NC1(CO)CC1)c1c(Cl)cccc1OCc1cc(=O)n2nc(-c3ccccc3)nc2[nH]1` [47-12, 2-chloro-N-(1-(hydroxymethyl)cyclopropyl)-6-((7-oxo-2-phenyl-4,7-dihydro-[1,2,4]triazolo[1,5-a]pyrimidin-5-yl)methoxy)benzamide], for which the “FABP4 TdF Kd” value is on record as “B (0.5 ≦ B < 0.001 μM)”.
Same read-out and setting: the same measure for `C=CCc1c(Cl)cccc1OCc1cc(=O)n2nc(-c3ccccc3)nc2[nH]1` [42-3]: “B (0.5 ≦ B < 0.001 μM)”.
Take `CN(CCc1ccccc1)C(=O)C1(OCc2cc(=O)n3nc(-c4ccccc4)nc3[nH]2)CCCCC1` [48-37]: the “FABP4 TdF Kd” value is given as “B (0.5 ≦ B < 0.001 μM)”.
Still for that read-out and setting: the entry for `CC(C)(CNC(=O)C1(OCc2cc(=O)n3nc(-c4ccccc4)nc3[nH]2)CCCCC1)N1CCOCC1` [48-58] is “B (0.5 ≦ B < 0.001 μM)”.
For `Cc1c(Cl)cccc1OCc1cc(=O)n2nc(-c3ccccc3)nc2n1C` [28-1], the dissociation constant Kd was above 500 nM.
Take `CC(C)(C)OCc1cc(=O)n2nc(-c3ccccc3)nc2[nH]1` [1-40]: the Kd is above 500 nM.
In the case of `O=c1cc(COc2cccc3c2CCC3)[nH]c2nc(-c3ccccc3)nn12` [1-6], the “FABP4 TdF Kd” value was “B (0.5 ≦ B < 0.001 μM)”.
For `CCc1ccc(OCc2[nH]c3nc(-c4ccccc4)nn3c(=O)c2Br)cc1` [2-2], the Kd was above 500 nM.
On to `Cc1cc(OCc2cc(=O)n3nc(-c4ccccc4)nc3[nH]2)ccc1C(C)C` [1-70], for which the “FABP4 TdF Kd” value is reported as “B (0.5 ≦ B < 0.001 μM)”.
With `O=c1cc(CN2CC[S+]([O-])CC2)[nH]c2nc(-c3ccccc3)nn12` [1-77], the dissociation constant (Kd) was above 500 nM.
Same read-out and setting: the figure for `O=c1cc(COC2CCC2)[nH]c2nc(-c3ccccc3)nn12` [1-20] is above 500 nM.
